Read-outs that look alike come from different tables or passages of the source. Marks after values point to notes of the source that are not given here. Blank lines part the entries; values can stand above or below the compound they belong to.
What was measured:
[1] = Fragrance burst (perfume headspace) of single perfumes in 5% sodium laurate shower product diluted through the CMC; assay type: physicochemical; details: diluted through the CMC (FIG. 3)
Method: It is precisely this “burst” or increase in headspace (e.g., from start of dilution up until CMC) and methods for determining in what compositions it will occur that is the basis of the subject invention.
Several different fragrance molecules were tested experimentally to validate the theoretical predictions. Limonene, p-cymene, α-pinene, tetrahydrolinolool, α-ionone, γ-methyl ionone, benzyl acetate and 2-phenoxylethanol were tested in a 5% sodium laurate shower product and diluted a number of times through the CMC (FIG. 3).

[2] = GC headspace vs dilution of components of a perfume mixture in 5 wt. % sodium laurate formulation; assay type: physicochemical; details: twelve-component perfume mixture, 5 wt. % sodium laurate (FIG. 9)
Method: A typical fully formulated perfume used in a commercial product, e.g., personal wash formulation, usually is a multi-component composition in which the properties of each perfume component can vary dramatically. A typical perfume mixture in a 5 wt. % sodium laurate formulation was tested for its “perfume burst” behaviour upon dilution. […] Each component has a unique dilution curve (GC headspace vs. dilution factor) governed by the factors (hydrophobicity, volatility, etc) discussed previously.

[3] = cited from earlier work
[4] = Critical micellization concentration (CMC) of surfactants; assay type: physicochemical
Description: As noted, the perfume burst is affected not only by the perfume properties, but also by properties of the formulation in which the perfume is found. Thus, the number and type of surfactant micelles found in a surfactant solution also has an effect. […] The critical micellization concentration is defined as the surfactant concentration at which micelles begin to form from unassociated surfactant monomers (M. J. Rosen, Surfactants and Interfacial Phenomena, 2nd Ed., 1989). Conversely, in a surfactant with low critical micelle concentration (e.g., one where micelles do form easily or, stated differently, don't break apart as readily once formed), a perfume, being generally more hydrophobic, tends to stay in the surfactant more readily. As a result, the perfume will tend not to “burst” (increase perfume headspace) as readily and, to achieve more headspace, more dilution may be required. The CMC of the surfactant system also affects “perfume burst”. Thus, for example, a surfactant system of relatively low CMC (e.g., sodium lauryl ether sulfate, also known as SLES) lowers the PBI and can greatly reduce the expected “perfume burst” on dilution. By contrast, surfactant system of relatively higher CMC (e.g., sodium laurate compared to SLES) would raise PBI and can thus increase “perfume burst” on dilution.

[5] = Fragrance burst in shower liquids with different surfactant concentrations; assay type: physicochemical; details: sodium laurate at 5, 10, 15 (20) wt. % (FIG. 6)
[6] = Fragrance burst in shower liquids with surfactants of different CMC; assay type: physicochemical; details: 5% sodium laureth sulfate (CMC=0.0011) vs 5% sodium laurate (CMC=0.005) (FIG. 8)
Method: Limonene and γ-Methyl Ionone were tested in two different shower liquid samples. One product was formulated with 5% sodium laurate (CMC=0.005 wt/wt) and the second with 5% sodium laureth sulfate (CMC=0.0011 wt/wt) (FIG. 8).

Compound: OCCOc1ccccc1 [2-Phenoxyethanol]
fragrance burst [1]: no fragrance burst at all

Compound: CC(=O)OCc1ccccc1 [Benzyl Acetate]
fragrance burst [1]: no fragrance burst at all
dilution behaviour of component (GC headspace) [2]: perfume headspaces decrease upon dilution

Compound: CCCCCCCCCCCCOC(=O)CCS(=O)(=O)[O-].[Na+] [C12H25OOC(CH2)2SO3^−Na^+ (SCI)]
CMC (wt./wt.) ([3]; 30° C.): 0.00076* (30° C.) wt./wt.

Compound: CC(C)[C@@H]1CC[C@@H](C)CC1=O [Menthone]
effect of surfactant concentration on fragrance burst [5]: maximum fragrance burst is reached with fewer dilutions in the 5% soap product

Compound: CCCCCCCCCCCC(=O)[O-].[Na+] [Sodium laurate]
CMC ([3]; Example 9): 0.005 wt/wt
CMC ([3]; Example 11): 0.5 wt. %

Compound: CC(=O)/C=C/C1C(C)=CCCC1(C)C (stereo not drawn) [α-ionone]
fragrance burst [1]: 430%

Compound: Sodium laureth sulfonate (2EO)
CMC (wt./wt.) ([3]; 50° C.): 0.0011*** wt./wt.
CMC ([3]; Example 9): 0.0011 wt/wt
CMC ([3]; Example 11): 0.1 wt. %

Compound: Sodium laureth sulfonate (3EO)
CMC (wt./wt.) ([3]; 50° C.): 0.00084*** wt./wt.

More lines, main results first:

CMC (wt./wt.) [4]: 0.00032 wt./wt.
Compound: CCCCCCCC(=O)NCCC[N+](C)(C)CC(=O)[O-] [Caprylamidopropyl betaine]

fragrance burst [1]: ~95%
effect of surfactant CMC on fragrance burst [6]: lower overall fragrance burst
Compound: C=C(C)[C@H]1CC=C(C)CC1 [Limonene]
effect of surfactant concentration on fragrance burst [5]: maximum fragrance burst is reached with fewer dilutions in the 5% soap product

fragrance burst [1]: 320%
Compound: CCC(C)(O)CCCC(C)C (centres unmarked) [Tetrahydrolinolool]

fragrance burst [1]: 120%
Compound: Cc1ccc(C(C)C)cc1 [p-Cymene]

fragrance burst [1]: 50%
Compound: CC1=CCC2CC1C2(C)C (stereo not drawn) [α-pinene]

fragrance burst [1]: 460%
effect of surfactant CMC on fragrance burst [6]: lower overall fragrance burst
dilution behaviour of component (GC headspace) [2]: as high as seven times
Compound: CC(=O)/C(C)=C/C1C(C)=CCCC1(C)C (centres unmarked) [γ-methyl ionone]
effect of surfactant concentration on fragrance burst [5]: maximum fragrance burst is reached with fewer dilutions in the 5% soap product

Source: patent publication US6858574B2, “Process for making perfume containing surfactant compositions having perfume burst when diluted” (Unilever Home & Personal Care USA, division of Conopco, Inc., priority 2002, dated 2005)
